Experimental data reported in patent US12428413B2 (CHDI Foundation, Inc., priority 2019, dated 2025).
Structures can show the parent of a compound that is named as a salt. Where two headings read alike, the source gives them in different places.

Experiments:
[1] = biological target: human catalytic domain ROCK II protein (amino acids 5-554) with a N-terminal GST tag (Homo sapiens, UniProt O75116); test: biochemical
[2] = test system: cellular ROCK activity (cofilin phosphorylation at Ser3) in A7r5 rat smooth muscle cells; test: Cellular ROCK activity: cofilin (Ser3) phosphorylation, In-Cell Western assay; format: cell-based; conditions: 1 hour compound incubation, phospho-cofilin (Ser3), read-out: CELL_IC50
Experimental: The potency of Rho-associated protein kinase (ROCK) inhibitors was quantified by measuring cofilin phosphorylation levels at Serine 3 (Ser3) as a measure of cellular ROCK activity by In-Cell Western assay. […] The assay plate was imaged and quantified on the Odyssey imager (LICOR Biosciences).
ROCK inhibitor compound plate preparation. […] Stock compounds and control are added directly to ECHO plate (Labcyte) by Janus.
A7r5 cell culture and plating. A7r5 cells were cultured according to standard cell culture protocols in A7r5 growth media (DMEM with Glutamax and 10% FBS). […] 45 μl of re-suspended A7r5 cells were plated at 3000 cells/well in a sterile, μclear, black, F-bottom, 384-well microplate (Greiner bio-one). Seeded cells allowed to settle in wells on the bench for 1 hour before incubation at 37° C., 5% CO2 overnight.
Assay reagent and antibody preparations. Wash buffer was prepared by addition of Tween-20 to Dulbecco's Phosphate Buffered Saline (DPBS) (1×) without calcium and magnesium to make 1% Tween-20 as final concentration. Blocking buffer was prepared by addition of TritonX-100 to SeaBlock buffer (ThermoFisher) to make 0.3% TritonX-100 as final concentration. […] Secondary antibody mix was prepared by diluting donkey anti-rabbit 800CW antibody (LICOR Biosciences) 1:1000 in SeaBlock buffer.
Assay procedure. Compound plate was diluted by addition of 19 μl/well compound dilution buffer (DMEM with Glutamax) using 125 μl 16-channel Matrix electronic pipette. 5 μl diluted compound was stamped from compound plate to assay plate containing A7r5 cells using Bravo (384-well head from Agilent) liquid handler and incubated at 37° C., 5% CO2 for 1 hour. Cells were fixed by addition of 5 μl 37% formaldehyde using 125 μl 16-channel Matrix electronic pipette and incubation for 20 min at room temperature. The assay plate was washed 5× with 60 μl/well wash buffer. […] Next, the assay plate was sealed, centrifuged at 1000 rpm for 5 seconds and incubated at 4° C. overnight on an orbital shaker at 300 rpm. […] The assay plate was centrifuged at 1000 rpm for 5 seconds and incubated on an orbital shaker at 300 rpm for 60 min at room temperature. Finally, assay plate was washed and wells left empty before measurement of 700 nm and 800 nm fluorescence intensities on Odyssey imager set at 4.0 mm focus offset.

Sequence of human catalytic domain ROCK II protein (amino acids 5-554) with a N-terminal GST tag (O75116 5-554): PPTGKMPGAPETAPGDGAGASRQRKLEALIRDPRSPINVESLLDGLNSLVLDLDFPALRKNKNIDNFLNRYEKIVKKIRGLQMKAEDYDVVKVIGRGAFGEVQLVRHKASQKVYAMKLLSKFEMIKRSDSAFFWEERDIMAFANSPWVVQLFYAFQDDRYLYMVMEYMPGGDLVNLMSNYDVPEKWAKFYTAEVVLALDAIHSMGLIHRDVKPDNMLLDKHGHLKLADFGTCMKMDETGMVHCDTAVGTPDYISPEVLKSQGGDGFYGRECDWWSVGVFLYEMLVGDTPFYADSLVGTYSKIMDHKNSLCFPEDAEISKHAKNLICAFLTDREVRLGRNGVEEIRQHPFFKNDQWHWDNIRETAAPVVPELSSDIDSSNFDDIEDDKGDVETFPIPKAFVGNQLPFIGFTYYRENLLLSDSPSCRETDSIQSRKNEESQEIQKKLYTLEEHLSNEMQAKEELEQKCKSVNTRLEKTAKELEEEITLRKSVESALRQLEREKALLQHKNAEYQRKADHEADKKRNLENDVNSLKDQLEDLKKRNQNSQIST

IC50 [1] | IC50 ([2]; Rattus norvegicus, A7R5, 1 h) | IC50 [2] | SMILES
38.3 nM | 1160 nM |  | COc1cccc(CNC(=O)N2[C@H](C)CN(c3ccncc3F)C[C@H]2C)c1 [Example 95, (2R,6R)-4-(3-Fluoropyridin-4-yl)-N-(3-methoxybenzyl)-2,6-dimethylpiperazine-1-carboxamide]
12 nM | 114 nM |  | COc1cccc([C@@H](C)NC(=O)N2[C@H](C)CN(c3ccncc3F)C[C@H]2C)c1 [Example 97, (2R,6R)-4-(3-Fluoropyridin-4-yl)-N—((R)-1-(3-methoxyphenyl)ethyl)-2,6-dimethylpiperazine-1-carboxamide Formate]
2.8 nM | 27.2 nM |  | C[C@@H](NC(=O)N1CCN(c2ccncc2F)CC1)c1cccc2c1CCO2 [Example 28, (R)—N-(1-(2,3-Dihydrobenzofuran-4-yl)ethyl)-4-(3-fluoropyridin-4-yl)piperazine-1-carboxamide]
122 nM | 1660 nM |  | O=C(NCc1ccccc1Cl)N1CCN(c2ccncc2F)CC1 [Example 130]
61.1 nM | 1160 nM |  | C[C@@H](NC(=O)N1CCN(c2ccncc2F)CC1)c1ccccc1Cl [Example 124]
19.6 nM | 60.2 nM |  | COc1cccc([C@@H](C)NC(=O)N2CCN(c3ccncc3F)CC2C)c1 (some centres unmarked) [Example 154]
60.9 nM | 924 nM |  | COc1ccc(F)c([C@@H](C)NC(=O)N2CCN(c3ccncc3F)CC2)c1 [Example 126]
227 nM | 1420 nM |  | C[C@@H]1CN(c2ccncc2F)CCN1C(=O)OCc1cccc2nccn12 [Example 73, Imidazo[1,2-a]pyridin-5-ylmethyl (R)-4-(3-fluoropyridin-4-yl)-2-methylpiperazine-1-carboxylate]
30.7 nM | 1690 nM |  | COc1cccc([C@@H](C)OC(=O)N2CCN(c3ccnc(F)c3)C[C@H]2C)c1 [Example 2, (R)-1-(3-Methoxyphenyl)ethyl (R)-4-(2-fluoropyridin-4-yl)-2-methylpiperazine-1-carboxylate]
198 nM | 2550 nM |  | COc1cccc([C@@H](C)NC(=O)N2CCN(c3ccncc3F)CC2)c1F [Example 18, (R)—N-(1-(2-Fluoro-3-methoxyphenyl)ethyl)-4-(3-fluoropyridin-4-yl)piperazine-1-carboxamide]
42.2 nM | 1070 nM |  | COc1cccc(CNC(=O)N2CCN(c3ccnc(F)c3)C[C@H]2C)c1 [Example 107]
75.9 nM | 1390 nM |  | COc1cccc([C@@H](C)NC(=O)N2[C@H](C)CN(c3ccnc(F)c3)C[C@H]2C)c1 [Example 15, (2R,6R)-4-(2-Fluoropyridin-4-yl)-N—((R)-1-(3-methoxyphenyl)ethyl)-2,6-dimethylpiperazine-1-carboxamide]
88.8 nM |  | 1440 nM | CC(NC(=O)N1CCN(c2ccncc2F)CC1)c1cccc(F)c1Cl (single isomer, unassigned) [Example 23, N-(1-(2-Chloro-3-fluorophenyl)ethyl)-4-(3-fluoropyridin-4-yl)piperazine-1-carboxamide]
7.6 nM | 191 nM |  | C[C@@H]1CN(c2ccncc2F)CCN1C(=O)NCc1cccc2c1OCCO2 [Example 77, (R)—N-((2,3-Dihydrobenzo[b][1,4]dioxin-5-yl)methyl)-4-(3-fluoropyridin-4-yl)-2-methylpiperazine-1-carboxamide formate]
2.8 nM | 9.1 nM |  | [2H]C([2H])([2H])Oc1cccc([C@@H](C)NC(=O)N2CCN(c3ccncc3F)C[C@H]2C)c1 [Example 82, (R)-4-(3-Fluoropyridin-4-yl)-N—((R)-1-(3-(methoxy-d3)phenyl)ethyl)-2-methylpiperazine-1-carboxamide]
3.4 nM | 13.2 nM |  | Cc1cnc2cccc([C@@H](C)NC(=O)N3CCN(c4ccncc4F)C[C@H]3C)n12 [Example 65, (R)-4-(3-Fluoropyridin-4-yl)-2-methyl-N—((R)-1-(3-methylimidazo[1,2-a]pyridin-5-yl)ethyl)piperazine-1-carboxamide]

IC50 [1] | IC50 ([2]; Rattus norvegicus, A7R5, 1 h) | IC50 [2] | SMILES
8 nM | 152 nM |  | [2H]C([2H])([2H])Oc1cccc([C@H](NC(=O)N2CCN(c3ccncc3F)CC2)C([2H])([2H])[2H])c1 [Example 131]
8.1 nM | 138 nM |  | [2H]C([2H])([2H])Oc1cccc([C@@H](C)NC(=O)N2CCN(c3ccnc(F)c3)C[C@H]2C)c1 [Example 115]
2.4 nM | 13.8 nM |  | C[C@@H]1CN(c2ccncc2F)CCN1C(=O)N[C@H](C)c1cccn2nccc12 [Example 61, (R)-4-(3-Fluoropyridin-4-yl)-2-methyl-N—((R)-1-(pyrazolo[1,5-a]pyridin-4-yl)ethyl)piperazine-1-carboxamide]
13 nM | 144 nM |  | C[C@@H]1CN(c2ccncc2F)CCN1C(=O)NCc1ccccc1Cl [Example 54, (R)—N-(2-Chlorobenzyl)-4-(3-fluoropyridin-4-yl)-2-methylpiperazine-1-carboxamide]
4.8 nM | 62 nM |  | COc1cccc([C@@H](C)NC(=O)N2CCN(c3ccncc3F)[C@@H](C)C2)c1 [Example 90, (S)-4-(3-Fluoropyridin-4-yl)-N—((R)-1-(3-methoxyphenyl)ethyl)-3-methylpiperazine-1-carboxamide]
238 nM | 2430 nM |  | COc1cccc([C@@H](C)NC(=O)N2C[C@H]3C[C@@H]2CN3c2ccncc2F)c1 [Example 153]
20.1 nM | 707 nM |  | COc1cccc(CNC(=O)N2CCN(c3ccncc3F)[C@@H](C)C2)c1 [Example 150]
12.8 nM | 674 nM |  | C[C@H](NC(=O)N1CCN(c2ccncc2F)C[C@H]1C)c1cccc2c1N(C)CCO2 [Example 144]
150 nM | 783 nM |  | COc1cccc([C@@H](C)NC(=O)N2CCN(c3ccncc3F)[C@H](C)C2)c1 [Example 91, (R)-4-(3-Fluoropyridin-4-yl)-N—((R)-1-(3-methoxyphenyl)ethyl)-3-methylpiperazine-1-carboxamide]
2.6 nM | 9.1 nM |  | C[C@@H]1CN(c2ccncc2F)CCN1C(=O)N[C@H](C)c1cccc2occc12 [Example 142]
6.9 nM | 127 nM |  | [2H]C([2H])([2H])Oc1cccc([C@H](NC(=O)N2CCN(c3ccnc(F)c3)C[C@H]2C)C([2H])([2H])[2H])c1 [Example 116]
3.8 nM | 53.1 nM |  | C[C@@H]1CN(c2ccncc2F)CCN1C(=O)N[C@H](C)c1cccc(OC(F)F)c1 [Example 136]
3.9 nM | 295 nM |  | COc1cccc([C@@H](C)OC(=O)N2CCN(c3ccncc3F)C[C@H]2C)c1 [Example 46, (R)-1-(3-Methoxyphenyl)ethyl (R)-4-(3-fluoropyridin-4-yl)-2-methylpiperazine-1-carboxylate]
3.1 nM | 1.6 nM |  | C[C@@H]1CN(c2ccncc2F)CCN1C(=O)N[C@H](C)c1cccc2nn(C)cc12 [Example 71, (R)-4-(3-Fluoropyridin-4-yl)-2-methyl-N—((R)-1-(2-methyl-2H-indazol-4-yl)ethyl)piperazine-1-carboxamide]
56.8 nM | 978 nM |  | C[C@@H]1CN(c2ccncc2F)CCN1C(=O)NCc1cccc2c1OC(F)(F)O2 [Example 74, (R)—N-((2,2-Difluorobenzo[d][1,3]dioxol-4-yl)methyl)-4-(3-fluoropyridin-4-yl)-2-methylpiperazine-1-carboxamide Hemiformate]
